Reference: PubChem BioAssay (NCI)
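Values below derive from 48-hour exposures of cells grown in 96-well plates, with endpoints linearly interpolated between the two concentrations bracketing the appropriate inhibition level. The concentration for 50% growth inhibition is given as GI50. TGI marks complete inhibition of growth.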

Legend:
Experiment in all cases: NCI anticancer screen, dose series, 48 h
[1] = test system: COLO 205 colon
[2] = test system: UACC-257 melanoma
[3] = test system: TK-10 renal
[4] = test system: SNB-75 CNS
[5] = test system: NCI-H460 lung
[6] = test system: HCC-2998 colon
[7] = test system: EKVX NSCLC
[8] = test system: SF-295 CNS
[9] = test system: U251 CNS
[10] = test system: SR leukemia

SMILES	TGI [1] [µM]	TGI [2] [µM]	TGI [3] [µM]	TGI [4] [µM]	TGI [5] [µM]	TGI [6] [µM]	TGI [7] [µM]	TGI [8] [µM]	TGI [9] [µM]	GI50 [1] [µM]	GI50 [3] [µM]	GI50 [9] [µM]	GI50 [4] [µM]	GI50 [10] [µM]	GI50 [5] [µM]	GI50 [6] [µM]	GI50 [7] [µM]	GI50 [8] [µM]	TGI [10] [µM]	GI50 [2] [µM]
CN1CCN(c2nc(N)c(Br)c(Cl)n2)CC1	> 100	> 100	> 100	> 100	> 100	> 100	> 100	> 100	–	–	–	–	–	–	–	–	–	–	–	–
CCOC(=O)C1C(=O)CC(=O)C2CCCCC21 (stereo not given)	> 100	> 100	> 100	> 100	> 100	–	> 100	> 100	> 100	–	–	–	–	–	–	–	–	–	–	–
CC(=O)OCC1OC(n2c(=S)n(-c3ccccc3)c(=O)c3cc(Br)ccc32)C(OC(C)=O)C1OC(C)=O (stereo not given)	> 100	> 100	–	> 100	> 100	> 100	> 100	> 100	> 100	–	–	–	–	–	–	–	–	–	–	–
C(=N\Nc1ccc2ccccc2n1)/c1ccccn1	8.96	–	> 100	51.2	–	1.14	> 32.9	12.9	> 55	0.41	0.375	0.413	1.1	0.328	0.366	0.307	0.37	0.348	–	–
CC/C=C\C[C@H]1C/C=C2/C(=O)C(Cl)=C[C@@H]2C/C=C\CCCC(=O)O1	0.958	–	1.41	5.39	1.89	0.826	4.62	2.26	0.694	0.467	0.597	0.214	1.19	0.0753	0.545	0.437	0.805	0.705	4.93	–
N=C(CC(=O)Nc1ccccn1)c1ccccc1	> 100	> 100	> 100	> 100	> 100	–	> 100	> 100	> 100	–	–	–	–	–	–	–	–	–	> 100	–
O=C1NC(=NCCc2ccc(Br)cc2)S/C1=C\c1ccc2ncccc2c1	> 25	> 25	> 25	> 25	> 25	> 25	–	> 25	> 25	> 25	> 20.1	> 18.9	> 25	7.31	> 25	> 25	–	> 23.2	> 25	> 25
N#CC1=C(N)OC2=C(CCOc3c2ccc2ccccc32)C1c1ccc(Br)cc1 (stereo not given)	> 100	–	61.6	–	> 100	56.9	> 100	83.8	–	29	21.6	–	–	17	28.4	22.1	> 100	18.1	57.8	–
CC12CCc3ccccc3C1=NNC(=O)C2 (stereo not given)	> 100	> 100	> 100	> 100	> 100	> 100	> 100	> 100	> 100	–	–	–	–	–	–	–	–	–	–	–
N#CC(/C(CCCC(=O)Nc1cccc([N+](=O)[O-])c1)=N\NC(=O)c1c(O)ccc2ccccc12)c1nc2ccccc2s1 (stereo not given)	> 100	> 100	–	> 100	> 100	–	> 100	> 100	> 100	–	–	–	–	–	–	–	–	–	> 100	–
CN(CCCCCl)P(=O)(OCc1ccc([N+](=O)[O-])o1)OCC1OC(n2cc([N+](=O)[O-])c(=O)[nH]c2=O)CC1O (stereo not given)	> 100	> 100	> 100	–	> 100	> 100	> 100	> 100	> 100	44	> 100	> 100	–	–	3.01	37.7	> 100	49.8	–	> 100
CC(=O)C1C(=O)C(=O)N(CCN2C(=O)C(=O)C(C(C)=O)C2=O)C1=O (stereo not given)	> 100	> 100	> 100	> 100	> 100	> 100	> 100	> 100	> 100	–	–	–	–	–	–	–	–	–	–	–
C=CCSC(C)=O	> 100	–	> 100	> 100	> 100	> 100	> 100	> 100	> 100	–	–	–	–	–	–	–	–	–	> 100	–
O=C(C(=CN1CCN(C(=O)c2ccco2)C1=S)C(=O)c1ccccc1)c1ccccc1	> 50	21.4	22.1	> 50	11.6	–	21.4	33	25.8	20	6.87	2.66	27.4	1.28	2.35	–	8.06	11.1	6.72	11.7
Cc1ccc(S(=O)(=O)C2CC2(Cl)Cl)cc1 (stereo not given)	41.9	44	> 100	> 100	> 100	> 100	> 100	> 100	> 100	–	–	–	–	–	–	–	–	–	–	–
O=C1C=CC(=O)c2c1nc(CBr)[nH]c2=O	> 100	> 100	–	> 100	–	> 100	> 100	> 100	> 100	–	–	–	–	–	–	–	–	–	–	–
CCOCCOCCOCCOCCOCCOCCOCCOCCOCCO (tested in a mixture with another compound)	4.23	2.73	12.2	5.34	6.82	6.25	9.62	4.12	4.47	1.28	1.53	0.987	0.728	–	1.2	1.65	1.26	0.869	–	0.739
CC1=C2C=CC(=O)C[C@@]2(C)CCC1	> 100	> 100	> 100	> 100	> 100	> 100	> 100	> 100	> 100	–	–	–	–	–	–	–	–	–	–	–
COc1ccc(/C=C/c2ccnc3ccccc23)cc1OC	27.1	37.6	28.9	–	28.5	> 100	27.9	46.8	> 100	–	–	–	–	–	–	–	–	–	54.2	–
